The target in one data set is T1, (H+/K+)-ATPase (Canis lupus familiaris, UniProt P50996).
T1 construct: The microsomes retained at the 15%-30% sucrose interface, after centrifugation at 250,000×g for sixty minutes, were used as the source of (H^+/K^+)-ATPase; from tissue; host or cells: gastric glandular mucosa of mongrel dogs (microsomal fraction, lyophilized)
The data set is described as follows: Inhibition of (H+/K+)-ATPase from canine gastric mucosa (inorganic phosphate release). In kind it is biochemical. How it is done: Mongrel dogs weighing 15 to 25 kilograms were fasted for twenty-four hours, with water provided ad libitum. The animals were anesthetized with pentobarbital and the stomachs were removed. Subsequent tissue manipulations and subcellular fractionations were performed at 0° C. to 4° C. After the stomachs were cut open and rinsed with tap water, the antral and cardiac regions were removed and the remaining tissue was rinsed three times in saline. The glandular mucosa was removed mechanically, chopped finely in a medium containing 10 mM Tris hydrochloride (pH 7.4) and 250 mM sucrose, and homogenized. The homogenate was centrifuged at 20,000×g for twenty minutes and the pellet discarded. The supernatant was then centrifuged at 150,000×g for ninety minutes and the supernatant discarded. The pellet was resuspended in the Tris-HCl/sucrose medium by homogenization. Part (2 ml) of the resultant microsomal suspension was layered onto a step gradient consisting of 9 ml of 15% sucrose above 12 ml of 30% sucrose, each sucrose solution being buffered with 10 mM Tris hydrochloride (pH 7.4) containing 0.01% sodium azide. The microsomes retained at the 15%-30% sucrose interface, after centrifugation at 250,000×g for sixty minutes, were used as the source of (H^+/K^+)-ATPase. Microsomal preparations were lyophilized, a process that assured potassium ion permiability, and stored at −10° C. until used.
(H^+/K^+)-ATPase activity for each test compound was determined, in duplicate, by measuring the release of inorganic phosphate, which was assayed according to the method of J. ChandraRajan and L. Klein, Anal. Biochem., 72 , 407 (1976). The (H^+/K^+)-ATPase assay medium consisted of 20 mm mes-Tris (pH 6.0), 5 mM magnesium chloride, 25 mM sucrose, and 4 mM Tris-ATP with or without 20 mM potassium chloride in a total volume of 2 ml. Microsomal suspensions (20 to 60 mcl, containing about 25 mcg protein) were added to the assay medium, without Tris-ATP, and then preincubated with a test compound for thirty minutes at 37° C. The assay was initiated by adding Tris-ATP and the mixture was incubated another thirty minutes at 37° C. A 200-mcl aliquot of the assay mixture was then added to 1.4 ml of a solution consisting of 0.1 M sodium acetate (pH 4.0) and 10% sodium dodecylsulfate, followed by the addition of 200 mcl each of 1% ammonium molybdate and 1% ascorbic acid. At least fifteen minutes later, the optical absorbance at 870 nm (which was proportional to inorganic phosphate concentration up to 100 nmoles per tube, as determined by a standard curve) was obtained. Enzyme activity was linear with incubation time.
(H^+/K^+)-ATPase activity is represented by the difference between the measured activities in the presence of potassium-ion (K^+-stimulated) and in the absence of potassium ion (basal).

The subject of the next data set is gastric acid secretion. The data set is described as follows: Inhibition of gastric acid secretion in gastric fistula beagle dogs (histamine-stimulated). In kind it is in vivo. The following applies: for inhibition in vivo at 3 mg/kg: Canis lupus familiaris, 4 h, read-out: Gastric-Fistula Beagle % Inhibition (3 mg/kg dose). From the text:
Adult female beagle dogs weighing 6 to 11 kilograms obtained from Laboratory Research Enterprises (Kalamazoo, Mich.) or from Hazelton Research Animals (Cumberland, Va.) were surgically implanted with a simple Thomas-type gastric cannula. After recovery from surgery, the dogs were trained to stand quietly, fully conscious, in Pavlov-type dog restraining slings and were acclimated to intravenous infusion of histamine dihydrochloride. During the course of these studies, no dog was used more than once a week. All dogs were deprived of food, but not water, for 18 hours prior to each assay. Each dog was initially infused with 0.15 M sodium chloride solution at a constant rate of […]. The volume of gastric secretions, collected in plastic bottles affixed to the cannula, were measured to the nearest 0.1 ml at 30 minute intervals. One of the following protocols was followed, depending on the route chosen for administration of test compound.
Intravenous dosing: Following a 30-minute basal secretion period, test compounds were administered intravenously (i.v.). At the end of an additional 30 minute period, the saline infusion was replaced with histamine dihydrochloride in saline administered at a rate 15 mcg per kilogram of body weight per hour. Histamine stimulation was maintained for a maximum of four hours during which time gastric secretions were collected every 30 minutes. The pH and titratable acidity were determined for samples from each collection period.
Intragastric dosing: Following a 30-minute basal secretion period, he collection bottles were removed, dosing plugs here inserted, and test compounds were administered intragastrically (i.g.) At the end of a 30-minute drug absorption period, the stomachs were emptied, the collection bottles were reattached, and collections were resumed at 30-minute intervals. Simultaneously, the saline infusion was replaced with a continuous intravenous infusion of histamine dihydrochloride in saline administered for four hours at a rate 15 mcg per kilogram of body weight per hour.
Intraduodenal dosing: Dogs were also equipped with duodenal cannulas for intraduodenal (i.d.) administration of test compounds. Dosing was otherwise performed as described for intragastric dosing.
Data from each protocol were analyzed for three gastric sample variables: volume of gastric juice, acid concentration, and total acid output. Percent inhibition for each four-hour experimental period was determined for each parameter by comparison with 3 to 4 controls in which […]. Estimates of ED50's were determined from dose response curves.

Data set [1] concerns the target HCMV protease (assemblin) (Human cytomegalovirus, UniProt P16753). The data set is described as follows: Enzymatic assay for HCMV protease (assemblin) inhibitors, fluorogenic substrate DE2. The following applies: for inhibition at 100 µM: read-out: Assemblin Inhibition % Inhibition at 100 μm. In kind it is biochemical. The method, then:
The enzymatic assay for assemblin inhibitors compared the rate of product appearance between a control reaction containing no inhibitor and one that contained a known concentration of a potential inhibitor. There were two phases to the enzyme reaction. The first was a period of incubation of enzyme in the presence of inhibitor, but in the absence of the substrate. This incubation allowed for the inhibitor to bind and potentially block the enzyme from hydrolyzing the substrate. The second phase was started by adding the substrate and measuring the rate of product production.
The construction also encoded six additional histidine residues at the amino terminus of the protease. These additional histidine residues provided an affinity ligand by which it was purified using nickel-nitriloacetic acid-agarose (Qiagen).
The purified protease was stored as a 1-3 mg/ml stock solution in 50 mM sodium phosphate buffer, pH 7.4; 300 mM sodium chloride; 100 mM imidazole; 50% (v/v) glycerol. This stock was diluted with assay buffer to 4.8 μg/ml. A 100 μL aliquot of this solution was used in the enzyme reaction.
A specific substrate was synthesized based on the cleavage specificity of HCMV protease at the “maturation site” of the assembly protein (F. Liu and B. Roizman, J. Viral. 65, 5149 (1991), and A. R. Welch, et al, J. Viral., 65 4091 (1991)). The assembly protein maturation site has the sequence . . . AGVVNA*SCRLATA . . . (SEQ ID NO. 1); the substrate used was dabcycl-Abu-[…]-edans (SEQ ID NO. 2) (DE2). […] However, when the two chromophores are separated because of hydrolysis of the peptide moiety by HCMV protease the edans fluorescence was no longer quenched and an increase in fluorescence was realized. DE2 was stored as a stock solution at 160 μg/ml in dimethyl sulfoxide. This was diluted 10-fold with assay buffer to give a concentration of 16 μg/ml just before use. An aliquot of 50 μL was used in the reaction.
An assay Buffer (10 mM sodium phosphate buffer, pH 7.4; 150 mM sodium acetate; 0.1% CHAPS; and 20% (v/v) glycerol) was used to dilute stock solutions of enzyme and substrate.
Inhibitors were dissolved in dimethyl sulfoxide at 16-times the final assay concentration. A 10 μL aliquot of this inhibitor solution was used in the reaction.
A 100 μL aliquot of enzyme solution (4.8 μg/ml) was mixed with 10 μL of inhibitor solution in a 96-well plate cell and incubated at 22° C. for 30 minutes. Control reactions contained 10 μL of dimethylsulfoxide instead of inhibitor solution. After the preincubation was completed, 50 μL of substrate solution was added and the fluorescence recorded every 5 minutes for a period of 30 minutes. All reactions were run in triplicate with the exception of the uninhibited control reaction which was replicated 6-fold. The change in fluorescence was recorded over time and an average rate for each set of 3 reactions was calculated. Fluorescence assays were subject to spurious various due to factors such as dust in the 96-well plate; such results were omitted from the calculation of relative rates.

Setting [2] is: canine gastric mucosa microsomes, pH 6.0, 30 min preincubation at 37° C., read-out: (H+/K+)-ATPase IC50.
Setting [3] is: iv, 3 mg/kg i.v., histamine-stimulated, four-hour period.
Where [4] appears, read: at 100 μm, 30 min preincubation at 22° C.
[5] abbreviates: intraduodenal, 3 mg/kg i.d., histamine-stimulated, four-hour period.

The structures appear in SMILES notation. Read-outs that look alike come from different tables or passages of the source. Bounds are passed on as bounds.

T1 sequence (P50996 whole entry): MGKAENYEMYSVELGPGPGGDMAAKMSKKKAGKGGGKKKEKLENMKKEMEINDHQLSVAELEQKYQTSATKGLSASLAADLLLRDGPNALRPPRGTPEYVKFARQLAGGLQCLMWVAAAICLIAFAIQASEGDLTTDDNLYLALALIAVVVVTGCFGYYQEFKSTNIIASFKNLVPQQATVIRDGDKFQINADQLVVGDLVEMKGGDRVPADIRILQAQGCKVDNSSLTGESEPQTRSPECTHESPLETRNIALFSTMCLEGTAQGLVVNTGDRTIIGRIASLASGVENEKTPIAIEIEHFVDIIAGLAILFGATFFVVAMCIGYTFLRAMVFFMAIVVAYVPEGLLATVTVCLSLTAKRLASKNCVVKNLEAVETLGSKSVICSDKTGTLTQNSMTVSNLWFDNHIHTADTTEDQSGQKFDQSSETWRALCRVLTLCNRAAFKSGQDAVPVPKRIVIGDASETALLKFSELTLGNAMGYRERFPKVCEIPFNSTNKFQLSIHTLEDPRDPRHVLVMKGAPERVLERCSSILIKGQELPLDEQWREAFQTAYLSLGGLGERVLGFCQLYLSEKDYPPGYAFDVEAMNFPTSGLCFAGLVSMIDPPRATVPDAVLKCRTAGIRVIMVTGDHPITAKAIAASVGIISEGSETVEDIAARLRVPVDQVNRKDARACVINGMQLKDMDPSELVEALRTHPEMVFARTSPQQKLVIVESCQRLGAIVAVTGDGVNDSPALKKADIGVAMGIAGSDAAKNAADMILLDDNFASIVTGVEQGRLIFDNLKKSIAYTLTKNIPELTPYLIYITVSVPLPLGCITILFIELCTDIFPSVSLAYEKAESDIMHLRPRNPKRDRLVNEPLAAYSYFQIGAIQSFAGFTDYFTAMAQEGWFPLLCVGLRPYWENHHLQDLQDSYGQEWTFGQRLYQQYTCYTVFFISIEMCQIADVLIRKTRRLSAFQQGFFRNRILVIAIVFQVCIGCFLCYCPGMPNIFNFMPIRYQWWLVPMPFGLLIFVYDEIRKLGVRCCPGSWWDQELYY
T1 sequence (P33704 whole entry partner): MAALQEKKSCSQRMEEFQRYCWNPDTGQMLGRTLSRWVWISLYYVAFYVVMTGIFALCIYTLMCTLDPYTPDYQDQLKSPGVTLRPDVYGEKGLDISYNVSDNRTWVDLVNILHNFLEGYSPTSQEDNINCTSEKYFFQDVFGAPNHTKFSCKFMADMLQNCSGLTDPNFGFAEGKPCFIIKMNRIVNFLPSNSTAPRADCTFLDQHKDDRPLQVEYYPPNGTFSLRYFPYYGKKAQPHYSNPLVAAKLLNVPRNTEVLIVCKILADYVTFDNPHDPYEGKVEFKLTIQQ
Chain of HCMV protease (assemblin) (P16753 1-256): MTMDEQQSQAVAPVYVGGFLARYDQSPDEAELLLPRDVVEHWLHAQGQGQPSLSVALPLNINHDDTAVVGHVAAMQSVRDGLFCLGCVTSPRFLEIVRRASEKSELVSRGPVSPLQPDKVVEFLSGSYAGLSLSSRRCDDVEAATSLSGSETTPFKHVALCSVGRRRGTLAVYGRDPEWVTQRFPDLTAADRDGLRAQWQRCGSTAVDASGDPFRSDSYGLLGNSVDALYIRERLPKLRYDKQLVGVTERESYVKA

In the case of `Cc1cc2nc([S+]([O-])Cc3ccccc3N)[nH]c2cc1C` (stereo not shown) [Example 10, 2-[[(5,6-Dimethyl-1H-benzimidazol-2-yl)sulfinyl]methyl]benzenamine ¼ hydrate], the IC50 on (H+/K+)-ATPase (setting [2]) is 13.5 µM. Also, the inhibition in vivo at 3 mg/kg with gastric acid secretion (setting [3]) turned out to be 44%. For the same molecule, in data set [1] (setting [4]), the inhibition – broadly, the relative decrease from the control value, in per cent – at 100 µM is 43%.

As for `COc1cccc(C[S+]([O-])c2nc3ccccc3[nH]2)c1N.COc1cccc(C[S+]([O-])c2nc3ccccc3[nH]2)c1N.O` (stereo not shown) [Example 22, 2-((1H-Benzimidazol-2-ylsulfinyl)methyl]-6-methoxybenzenamine hemihydrate], the IC50 at (H+/K+)-ATPase (setting [2]) came out at 9.3 µM. Besides, the “Gastric-Fistula Beagle % Inhibition (3 mg/kg dose)” value with gastric acid secretion (3 mg/kg i.v., histamine-stimulated, four-hour period) is 70 i.v. %. Also, in data set [1] (setting [4]), the “Assemblin Inhibition % Inhibition at 100 μm” value is on record as 35%.

For `CNc1ccccc1C[S+]([O-])c1nc2ccccc2[nH]1` (stereo not shown) [Example 32, 2-[(1H-Benzimidazol-2-ylsulfinyl)methyl]-N-methylbenzenamine monohydrate], the IC50 at (H+/K+)-ATPase (setting [2]) stood at 0.64 µM. Moreover, the inhibition in vivo at 3 mg/kg in the data set on gastric acid secretion (intraduodenal) came to 21%. Also, the inhibition at 100 µM in data set [1] was 52%.

Take `CCc1ccc(N)c(C[S+]([O-])c2nc3ccccc3[nH]2)c1` (stereo not shown) [Example 37, 2-[(1H-Benzimidazol-2-ylsulfinyl)methyl]-4-ethylbenzenamine]: the melting point (as a rule, the temperature, or range, at which the solid turns liquid) is 155 to 156 °C. Further, the IC50 on (H+/K+)-ATPase (setting [2]) is 2 µM. The inhibition in vivo at 3 mg/kg with gastric acid secretion (setting [5]) came to 62%.

The molecule `CCOc1ccc2[nH]c([S+]([O-])Cc3ccccc3N)nc2c1` (stereo not shown) [Example 45, 2-[[(5-Ethoxy-1H-benzimidazol-2-yl)sulfinyl]-methyl]benzenamine] displayed a melting point of 154 to 155 °C. The IC50 on (H+/K+)-ATPase (setting [2]) was found to be 24 µM. Moreover, the inhibition at 100 µM in data set [1] (setting [4]) worked out at 51%.

`Nc1ccc(C(F)(F)F)cc1C[S+]([O-])c1nc2ccccc2[nH]1` (stereo not shown) [Example 49, 2-[(1H-Benzimidazol-2-ylsulfinyl)methyl]-4-(trifluoromethyl)benzenamine] registered a melting point of 185 to 187 °C. For the same molecule, the IC50 on (H+/K+)-ATPase (setting [2]) is > 100 µM. For the same molecule, in the data set with gastric acid secretion (setting [5]), the inhibition in vivo at 3 mg/kg worked out at 16%.

Molecule `CCCCc1ccc(N)c(C[S+]([O-])c2nc3ccccc3[nH]2)c1` (stereo not shown) [Example 51, 2-[(1H-Benzimidazol-2-ylsulfinyl)methyl]-4-butylbenzenamine] came in with a melting point of 146 to 148 °C. Moreover, the IC50 at (H+/K+)-ATPase (setting [2]) came to 2.6 µM. Further, the inhibition in vivo at 3 mg/kg in the data set with gastric acid secretion (setting [5]) is 19%.

With `Cc1cc(Cl)cc(C[S+]([O-])c2nc3ccccc3[nH]2)c1N.Cc1cc(Cl)cc(C[S+]([O-])c2nc3ccccc3[nH]2)c1N.O` (stereo not shown) [Example 57, 2-[(1H-Benzimidazol-2-ylsulfinyl)methyl]-4-chloro-6-methylbenzenamine hemihydrate], the IC50 at (H+/K+)-ATPase (setting [2]) is 60 µM. In data set [1] (setting [4]), the “Assemblin Inhibition % Inhibition at 100 μm” value stood at 66%.

The molecule `COc1cc(Cl)c(C)c(C[S+]([O-])c2nc3ccccc3[nH]2)c1N` (stereo not shown) [Example 59, 2-[(1H-Benzimidazol-2-ylsulfinyl)methyl]-4-chloro-6-methoxy-3-methylbenzenamine] gave a melting point of 163 to 164 °C. Moreover, the IC50 on (H+/K+)-ATPase (setting [2]) was 2.7 µM. In data set [1] (setting [4]), the inhibition at 100 µM was found to be 71%.

With `CCOC(=O)c1ccc(N)c(C[S+]([O-])c2nc3ccccc3[nH]2)c1.CCOC(=O)c1ccc(N)c(C[S+]([O-])c2nc3ccccc3[nH]2)c1.O` (stereo not shown) [Example 71, Ethyl 4-amino-3-[(1H-benzimidazol-2-ylsulfinyl)methyl]benzoate hemihydrate], the IC50 at (H+/K+)-ATPase (setting [2]) was > 100 µM. Besides, the “Gastric-Fistula Beagle % Inhibition (3 mg/kg dose)” value with gastric acid secretion (3 mg/kg i.d., histamine-stimulated, four-hour period) worked out at 7 i.d. %. Besides, the “Assemblin Inhibition % Inhibition at 100 μm” value in data set [1] (setting [4]) stood at 44%.

As to `CCOC(=O)c1ccc(N)c(C[S+]([O-])c2nc3ccc(OC)cc3[nH]2)c1` (stereo not shown) [Example 73, Ethyl 4-amino-3-[[(S-methoxy-1H-benzimidazol-2-yl)sulfinyl]methyl]benzoate], the IC50 at (H+/K+)-ATPase (setting [2]) was > 100 µM. Besides, the inhibition at 100 µM in data set [1] (setting [4]) stood at 50%.

With `CN(C)c1ncccc1C[S+]([O-])c1nc2ccccc2[nH]1` (stereo not shown) [Example 83, 3-[(1H-Benzimidazol-2-ylsulfinyl)methyl]-N,N-dimethyl-2-pyridinamine ⅓ hydrate], the IC50 at (H+/K+)-ATPase is 8.6 µM. Also, in the data set with gastric acid secretion (setting [3]), the inhibition in vivo at 3 mg/kg is 15%. For the same molecule, the inhibition at 100 µM in data set [1] (setting [4]) is 83%.

The values are drawn from patent publication US6906078B2, “Method of using (H+/K+) ATPase inhibitors as antiviral agents” (Pharmacia Corporation, priority 1994, dated 2005).
